Patent US8039639B2, “Kinase inhibitors and methods of use thereof” (Array BioPharma Inc., priority 2006, dated 2011)
“Also recorded” adds a separate entry of the source. Like-named read-outs stand apart in the source and are kept apart here.

What was measured:
[1] = Pharmacokinetics in monkey; assay type: in vivo, male Cynomologus monkeys
Description: (§1) Non-compartmental (model independent) methods were used to analyze the plasma concentration time-curves derived from all species as described below. Clearance (Cl), calculated percent extraction ratios (ER %), volume of distribution (Vz), time to […] (t1/2) and exposure (AUC, area under the curve) values are provided below for mouse, rat, and monkey, respectively.
3. […] Blood was sampled at the same time points as listed for the Mouse PK study.

VEGFR = VEGFR (Homo sapiens, UniProt P35968); test: protein kinase IC50 determination (ATP at Km); assay type: biochemical; details: ATP concentration at Km
CYP2C19 = target: T1, CYP2C19 (Homo sapiens, UniProt P33261); test: CYP inhibition assay (LC/MS, pooled human liver microsomes); assay type: in vitro ADME; details: n=1, read-out: CYPC19 IC50
T1 construct: using pooled human liver microsomes (n=1); from tissue; host or cells: pooled human liver microsomes
T1 sequence (P33261 whole entry): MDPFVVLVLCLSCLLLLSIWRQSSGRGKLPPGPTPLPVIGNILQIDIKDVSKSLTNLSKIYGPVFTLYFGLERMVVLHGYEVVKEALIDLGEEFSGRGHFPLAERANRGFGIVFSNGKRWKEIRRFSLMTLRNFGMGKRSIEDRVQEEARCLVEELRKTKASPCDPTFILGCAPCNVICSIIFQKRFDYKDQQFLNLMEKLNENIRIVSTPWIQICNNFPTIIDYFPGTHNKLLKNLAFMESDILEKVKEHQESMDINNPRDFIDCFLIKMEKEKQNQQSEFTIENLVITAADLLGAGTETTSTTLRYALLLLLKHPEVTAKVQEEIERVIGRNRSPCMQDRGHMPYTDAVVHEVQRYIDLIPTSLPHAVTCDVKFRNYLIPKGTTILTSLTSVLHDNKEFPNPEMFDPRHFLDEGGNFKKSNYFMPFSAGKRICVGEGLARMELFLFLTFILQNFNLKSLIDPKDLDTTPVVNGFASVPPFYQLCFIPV

sodium channel (site 2) = test: Off-target ligand displacement assay, panel of 28 receptors, ion channels and transporters; assay type: binding; details: at 10 μM; only hit among 28 entities screened
hERG = hERG (Homo sapiens, UniProt Q12809); test: hERG patch clamp; assay type: cell-based; details: at 10 μM
Sequence of hERG (Q12809 whole entry): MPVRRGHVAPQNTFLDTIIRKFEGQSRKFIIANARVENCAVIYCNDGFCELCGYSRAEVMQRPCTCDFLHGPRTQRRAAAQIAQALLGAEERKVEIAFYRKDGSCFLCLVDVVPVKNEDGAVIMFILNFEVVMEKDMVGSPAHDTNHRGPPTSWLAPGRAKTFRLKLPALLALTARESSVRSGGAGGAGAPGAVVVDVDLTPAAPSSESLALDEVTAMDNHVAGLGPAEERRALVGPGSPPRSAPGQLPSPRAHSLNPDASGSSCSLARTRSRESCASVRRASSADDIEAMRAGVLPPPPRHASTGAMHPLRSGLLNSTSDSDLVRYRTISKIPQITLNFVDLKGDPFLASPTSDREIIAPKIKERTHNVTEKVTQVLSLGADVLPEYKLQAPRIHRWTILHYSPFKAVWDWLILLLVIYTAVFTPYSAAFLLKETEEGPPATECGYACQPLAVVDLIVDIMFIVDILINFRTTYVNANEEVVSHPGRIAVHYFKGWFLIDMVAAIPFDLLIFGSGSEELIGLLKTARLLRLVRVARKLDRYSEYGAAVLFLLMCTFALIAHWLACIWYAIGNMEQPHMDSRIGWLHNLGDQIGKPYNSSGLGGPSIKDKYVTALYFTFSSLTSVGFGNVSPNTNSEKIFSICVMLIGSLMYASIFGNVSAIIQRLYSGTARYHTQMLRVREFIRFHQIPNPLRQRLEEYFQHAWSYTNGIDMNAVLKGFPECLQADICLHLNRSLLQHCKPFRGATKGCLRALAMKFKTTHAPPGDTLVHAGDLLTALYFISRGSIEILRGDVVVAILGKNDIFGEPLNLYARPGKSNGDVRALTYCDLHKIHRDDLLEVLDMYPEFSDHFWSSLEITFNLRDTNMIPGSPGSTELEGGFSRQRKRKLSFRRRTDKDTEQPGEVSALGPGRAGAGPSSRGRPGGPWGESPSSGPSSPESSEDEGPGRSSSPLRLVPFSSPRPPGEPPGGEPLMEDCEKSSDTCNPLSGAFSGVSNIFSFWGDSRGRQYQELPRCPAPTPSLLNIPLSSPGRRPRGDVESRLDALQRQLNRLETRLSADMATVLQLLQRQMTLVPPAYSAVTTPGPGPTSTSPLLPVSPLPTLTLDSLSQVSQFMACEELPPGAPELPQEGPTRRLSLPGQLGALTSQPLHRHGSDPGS
Procedure: hERG assay was performed using a standard patch clamp protocol. AMES assay (bacterial reverse mutation assay) was performed according to protocol. […] In vitro and in vivo micronucleus assays were performed according to protocol.

CYP2D6 = CYP2D6 (Homo sapiens, UniProt P10635); test: CYP inhibition assay (fluorescent probe, recombinant protein); assay type: in vitro ADME; details: n=1
Tie2 = Tie2 (Homo sapiens, UniProt Q02763); test: Tie2 autophosphorylation in Ang-1 stimulated HUVECs; assay type: cell-based; parameters: endogenous in cells; host or cells: HUVEC; details: 200 ng/mL Ang-1 for 10 minutes
Sequence of Tie2 (Q02763 23-1124): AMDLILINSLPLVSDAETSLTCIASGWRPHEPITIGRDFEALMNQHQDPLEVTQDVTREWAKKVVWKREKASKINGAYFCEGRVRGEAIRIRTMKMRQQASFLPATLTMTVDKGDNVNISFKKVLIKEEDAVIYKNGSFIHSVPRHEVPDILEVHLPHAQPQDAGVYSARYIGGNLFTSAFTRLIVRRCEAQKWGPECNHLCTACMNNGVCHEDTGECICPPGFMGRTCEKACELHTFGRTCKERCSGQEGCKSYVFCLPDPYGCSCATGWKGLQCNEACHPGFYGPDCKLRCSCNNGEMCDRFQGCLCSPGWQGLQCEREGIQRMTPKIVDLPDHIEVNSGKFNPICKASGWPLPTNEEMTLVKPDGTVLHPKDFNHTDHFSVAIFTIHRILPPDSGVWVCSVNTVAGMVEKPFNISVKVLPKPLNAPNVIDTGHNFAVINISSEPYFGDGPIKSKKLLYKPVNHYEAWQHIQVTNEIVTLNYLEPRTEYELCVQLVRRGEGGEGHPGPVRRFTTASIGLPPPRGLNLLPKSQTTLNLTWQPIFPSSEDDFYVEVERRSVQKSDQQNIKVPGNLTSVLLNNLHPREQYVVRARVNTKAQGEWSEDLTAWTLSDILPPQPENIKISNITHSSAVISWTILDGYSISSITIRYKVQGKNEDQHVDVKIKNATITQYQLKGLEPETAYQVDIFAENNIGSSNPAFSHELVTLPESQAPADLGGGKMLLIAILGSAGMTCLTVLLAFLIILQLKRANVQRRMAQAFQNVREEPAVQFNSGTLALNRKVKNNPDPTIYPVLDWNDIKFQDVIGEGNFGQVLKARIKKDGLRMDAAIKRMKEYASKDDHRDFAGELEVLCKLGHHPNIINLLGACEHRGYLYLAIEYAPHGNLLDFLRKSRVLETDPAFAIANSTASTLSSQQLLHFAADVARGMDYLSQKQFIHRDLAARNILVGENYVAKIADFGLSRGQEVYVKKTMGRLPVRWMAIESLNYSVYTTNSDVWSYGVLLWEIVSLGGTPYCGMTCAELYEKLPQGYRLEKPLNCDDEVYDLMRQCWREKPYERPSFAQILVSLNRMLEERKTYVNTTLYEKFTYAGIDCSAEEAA
Description: (§2) Tie2 was then immunopurified (IP) and immunoblotted with anti-phosphotyrosine (pTyr) and anti-Tie2 antibodies to assess the degree of Tie2 autophosphorylation. Lysates were immunoblotted with anti-phospho-Erk and anti-phospho-AKT (Ser473) antibodies, respectively. Signals were quantified and normalized to GAPDH as a loading control. The results were shown in an immunoblot and a graph.

[2] = system: Collagen Induced Arthritis (CIA); test: Rat model of collagen induced arthritis (CIA); assay type: in vivo, Female Lewis rats; details: BID×7, dosed as prodrug Compound 74; for ED50: PO
Procedure: Female Lewis rats (200 g); n=8 per treatment group were injected with type II collagen/Freund's incomplete adjuvant (300 μL injection of 0.6 mg collagen, dorsal surface Day 0 and Day 6). […] ENBREL® served as a positive control. Compounds were administered on days 11-18. Ankle diameter was measured at day 11 and every day thereafter (FIG. 70). At study end paw weight and microscopic histology were determined. Both hind paws and knees were removed, hind paws weighed and then placed, with knees, in formalin. Following 1-2 days in fixative and 4-5 days in decalcifier, ankle joints and knees were processed, embedded, sectioned and stained with toluidine blue. Ankles and knees were given scores of 0-5 for inflammation, pannus formation and bone resorption.

Hck = Hck (Homo sapiens, UniProt P08631); test: protein kinase IC50 determination (ATP at Km); assay type: biochemical; details: ATP concentration at Km
Sequence of Hck (P08631 whole entry, species assumed): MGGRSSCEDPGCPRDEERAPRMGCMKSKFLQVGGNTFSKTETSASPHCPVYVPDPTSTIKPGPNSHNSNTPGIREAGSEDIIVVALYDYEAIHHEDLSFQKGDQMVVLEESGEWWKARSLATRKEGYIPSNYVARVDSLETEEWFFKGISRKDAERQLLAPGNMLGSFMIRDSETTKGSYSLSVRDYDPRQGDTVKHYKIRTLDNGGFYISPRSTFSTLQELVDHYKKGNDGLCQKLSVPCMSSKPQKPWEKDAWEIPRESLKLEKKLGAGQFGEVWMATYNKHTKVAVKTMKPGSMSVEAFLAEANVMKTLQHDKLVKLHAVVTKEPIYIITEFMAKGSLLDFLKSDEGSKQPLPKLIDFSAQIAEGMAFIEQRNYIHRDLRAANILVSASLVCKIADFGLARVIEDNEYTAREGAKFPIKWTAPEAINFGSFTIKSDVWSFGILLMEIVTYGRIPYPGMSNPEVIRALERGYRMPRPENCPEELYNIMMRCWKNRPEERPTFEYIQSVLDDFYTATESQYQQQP

Erk and AKT = test: phospho-Erk and phospho-AKT in Ang-1 stimulated HUVECs; assay type: cell-based; details: Homo sapiens, HUVEC, 10 min, 200 ng/mL Ang-1 for 10 minutes, read-out: IC50, downstream effectors Erk and AKT
Description: as §2

Lyn = Lyn (Homo sapiens, UniProt P07948); test: protein kinase IC50 determination (ATP at Km); assay type: biochemical; details: ATP concentration at Km
Sequence of Lyn (P07948 whole entry, species assumed): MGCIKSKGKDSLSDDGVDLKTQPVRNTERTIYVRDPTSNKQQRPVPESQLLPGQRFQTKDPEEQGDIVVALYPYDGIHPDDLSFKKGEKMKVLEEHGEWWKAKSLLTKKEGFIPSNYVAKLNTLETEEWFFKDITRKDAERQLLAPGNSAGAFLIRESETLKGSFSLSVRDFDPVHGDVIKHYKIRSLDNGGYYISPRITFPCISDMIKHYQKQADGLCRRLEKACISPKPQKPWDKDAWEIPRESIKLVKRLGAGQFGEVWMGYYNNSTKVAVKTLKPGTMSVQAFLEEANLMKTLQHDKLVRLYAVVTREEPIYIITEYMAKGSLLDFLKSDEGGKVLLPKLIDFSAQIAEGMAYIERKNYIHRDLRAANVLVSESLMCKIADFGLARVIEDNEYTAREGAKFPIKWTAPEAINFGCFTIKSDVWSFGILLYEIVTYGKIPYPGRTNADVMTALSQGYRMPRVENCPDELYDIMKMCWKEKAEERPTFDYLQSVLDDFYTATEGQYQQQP

CYP2C9 = target: T2, CYP2C9 (Homo sapiens, UniProt P11712); test: CYP inhibition assay (LC/MS, pooled human liver microsomes); assay type: in vitro ADME; details: n=1
T2 construct: using pooled human liver microsomes (n=1); from tissue; host or cells: pooled human liver microsomes
T2 sequence (P11712 whole entry): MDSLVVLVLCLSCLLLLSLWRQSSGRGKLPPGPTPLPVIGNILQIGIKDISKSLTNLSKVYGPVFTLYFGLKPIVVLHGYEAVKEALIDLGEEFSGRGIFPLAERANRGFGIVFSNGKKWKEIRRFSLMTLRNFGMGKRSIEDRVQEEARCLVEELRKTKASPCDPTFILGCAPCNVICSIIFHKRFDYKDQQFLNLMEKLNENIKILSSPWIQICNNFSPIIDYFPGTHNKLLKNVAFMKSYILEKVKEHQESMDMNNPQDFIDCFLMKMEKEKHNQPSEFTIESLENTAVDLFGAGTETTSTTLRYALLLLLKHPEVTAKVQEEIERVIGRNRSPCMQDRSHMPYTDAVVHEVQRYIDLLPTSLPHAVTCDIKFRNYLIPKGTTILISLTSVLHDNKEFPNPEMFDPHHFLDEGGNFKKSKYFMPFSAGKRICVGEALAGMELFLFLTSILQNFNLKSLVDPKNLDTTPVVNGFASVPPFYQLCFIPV

K562 = K562 cell viability (CellTiter Blue); assay type: cell-based; details: Homo sapiens; K562, 72 hours
Description: Cell viability was subsequently measured using CellTiter Blue (Promega) to determine IC50 values for each compound.

[3] = 14-day tolerability study in mice; assay type: in vivo; details: 14 days, dosed as Compound 74
Procedure: Weight loss was assessed throughout study. Blood was removed on the final day for clinical chemistries (albumin, alkaline phosphatase, ALT, Amylase, BUN, calcium, cholesterol, creatinine, glucose, phosphate, total bilirubin, TP, Globulin).

CYP1A2 = CYP1A2 (Homo sapiens, UniProt P05177); test: CYP inhibition assay (fluorescent probe, recombinant protein); assay type: in vitro ADME; details: n=1
Sequence of CYP1A2 (P05177 whole entry, species assumed): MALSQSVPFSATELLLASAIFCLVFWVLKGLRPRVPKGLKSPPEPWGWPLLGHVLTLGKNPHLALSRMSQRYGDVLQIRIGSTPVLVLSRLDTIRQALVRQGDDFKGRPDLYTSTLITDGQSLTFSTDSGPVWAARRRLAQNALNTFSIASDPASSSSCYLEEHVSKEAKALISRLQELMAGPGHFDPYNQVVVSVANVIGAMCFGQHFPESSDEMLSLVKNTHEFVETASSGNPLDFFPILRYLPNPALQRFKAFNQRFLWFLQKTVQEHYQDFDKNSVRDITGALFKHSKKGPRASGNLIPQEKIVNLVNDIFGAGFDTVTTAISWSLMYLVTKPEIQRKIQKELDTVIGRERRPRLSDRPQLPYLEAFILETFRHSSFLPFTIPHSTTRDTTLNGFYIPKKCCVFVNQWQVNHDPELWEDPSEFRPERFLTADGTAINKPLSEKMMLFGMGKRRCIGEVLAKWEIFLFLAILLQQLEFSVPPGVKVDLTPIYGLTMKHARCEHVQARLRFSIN

[4] = system: bFGF-induced angiogenesis; test: bFGF matrigel plug angiogenesis in vivo; parameters: species or system Female CD-1 mice; details: PO, BID×7, dosed as prodrug Compound 74
Procedure: Female CD-1 mice (19-22 g), n=4 per treatment group, were implanted subcutaneously with 500 μL growth factor reduced matrigel containing 1500 ng/mL bFGF or 0 ng/mL bFGF as a negative control. Test compounds were administered by oral gavage at the indicated doses and schedules. […] Sutent is an inhibitor of KDRand served as a positive drug control in this study. Animals were euthanized on day 7. Matrigel was harvested, weighed and homogenized in phosphate buffered saline, pH 7.4. Samples were centrifuged and the resulting lysate analyzed for hemoglobin concentration by colorimetric reaction.

Solubility determination = assay type: physicochemical
[5] = Pharmacokinetics in mouse; assay type: in vivo, female Balb/c mice
Procedure: as §1
1. […] Blood samples were obtained at 15 and 30 minutes, and 1, 2, 4, 8 and 24 hours after PO dosing, and at 15 and 30 minutes, and 1, 2, 4, and 8 hours for IV administration.

[6] = system: TNF-α production in whole blood; test: TNF-α production in LPS-treated whole blood (ELISA); assay type: cell-based; details: whole blood treated with LPS, read-out: apparent IC50, inhibition of TNF-α production
[7] = CD-1 mice, 10, 30 and 100 mg/kg BID, all dose groups
[8] = female, Balb/c, plasma, IV: 1 mg/kg

For `Cc1ccc(-n2nc(C(C)(C)C)cc2NC(=O)NCc2cc(F)ccc2Oc2ccc3c(cnn3CCO)c2)cc1` [Compound 72, 1-(3-tert-butyl-1-p-tolyl-1H-pyrazol-5-yl)-3-(5-fluoro-2-(1-(2-hydroxyethyl)-1H-indazol-5-yloxy)benzyl)urea], the AUC ([1]; IV: 1 mg/kg) was “AUC = 4.1 μg-hr/kg”, the ER ([1]; IV: 1 mg/kg) was “ER = 20%” and the AUC ([1]; Oral: 10 mg/kg) was “AUC = 7.6 μg-hr/kg”. For the same compound, the F ([1]; Oral: 10 mg/kg) was “F = 38%”, the clearance ([1]; male, plasma, IV: 1 mg/kg) was 8.8 mL/min/kg and the half-life ([1]; male, plasma, IV: 1 mg/kg) was 4.6 h. The Vd ([1]; male, plasma, IV: 1 mg/kg, read-out: Vz) was 3.2 L/kg, the Cmax ([1]; male, plasma, Oral: 10 mg/kg) was 260 ng/mL and the IC50 (VEGFR) was 0.074 µM. The IC50 (CYP2C19) was 25 µM, the “ligand displacement, sodium channel (site 2)” value (sodium channel (site 2)) was greater than 50% and the “hERG Patch Clamp Inhibition” value (hERG) was 64% Inhibition at 10 μM. The IC50 (CYP2D6) was 3 µM, the IC50 (Tie2) was less than 0.033 µM and the “disease course by the end of the study” value ([2]; rat CIA, 10 mg/kg PO) was “induced disease regression”. For the same compound, the “parameters associated with the disease model” value ([2]; rat CIA, 0.3, 1, 3 or 10 mg/kg PO) was “dose-dependently improved all of the parameters”, the ED50 ([2]; rat CIA, read-out: apparent ED50, ankle diameter) was 1.5 mg/kg and the ED50 ([2]; rat CIA, read-out: apparent ED50, histopathology) was 3 mg/kg. It also gave an IC50 (Hck) of 0.026 µM, an IC50 (Erk and AKT) of less than 0.011 µM and an IC50 (Lyn) of 0.025 µM. For the same compound, the IC50 (CYP2C9) was 5 µM, the IC50 (K562) was 0.062 µM and the Clinical chemistries [3, 7] was “Within normal range (all dose groups)”. The Weight loss [3, 7] was <5% (all dose groups), the “dose-limiting toxicities (DLTs)” value ([3]; CD-1 mice, up to 100 mg/kg BID) was “no dose-limiting toxicities (DLTs) were seen; also recorded: no observed DLTs” and the IC50 (CYP1A2) was 25 µM. For the same compound, the “inhibition of bFGF-induced angiogenesis (matrigel hemoglobin)” value ([4]; mice, 100 mg/kg active drug, p<0.05) was 72%, the “bFGF-induced angiogenesis, dose response” value ([4]; mice, 10, 30 or 100 mg/kg active drug) was “inhibited bFGF-induced angiogenesis in a dose-dependent manner” and the solubility (Solubility determination; aqueous buffer, pH 3.0) was less than 5 µg/mL. The solubility (Solubility determination; pH 7.4, aqueous buffer) was less than 5 µg/mL, the AUC ([5]; IV: 1 mg/kg) was “AUC = 6.6 μg-hr/kg” and the ER ([5]; IV: 1 mg/kg) was “ER = 2.8%”. The AUC ([5]; Oral: 10 mg/kg) was “AUC = 10.5 μg-hr/kg”, the F ([5]; Oral: 10 mg/kg) was “F = 16%” and the clearance [5, 8] was 2.6 mL/min/kg. The half-life [5, 8] was 3.9 h, the Vd ([5]; female, Balb/c, plasma, IV: 1 mg/kg, read-out: Vz) was 0.085 L/kg and the Cmax ([5]; female, Balb/c, plasma, Oral: 10 mg/kg) was 1800 ng/mL. It also gave an IC50 [6] of 0.03 µM.
